The source of these data is patent US12709603B2, “Crystalline forms of {2-[3-cyclohexyl-3-(trans-4-propoxy-cyclohexyl)-ureido]-thiazol-5-ylsulfanyl}-acetic acid and uses thereof” (vTv Therapeutics LLC, priority 2020, dated 2026).

Entries after “also recorded” stand apart in the source; their conditions may differ.

The nature of data set [1]: Drying of selected materials under vacuum at 45° C., solid form checked by XRPD. It counts as physicochemical. As for the experimental part:
(§1) XRPD patterns were collected with a PANalytical X'Pert PRO MPD or Empyrean diffractometer using an incident beam of Cu radiation produced using an Optix long, fine-focus source. An elliptically graded multilayer mirror was used to focus Cu Ku X-ray radiation through the specimen and onto the detector. Prior to the analysis, a silicon specimen (NIST SRM 640e) was analyzed to verify the observed position of the Si (111) peak is consistent with the NIST-certified position. A specimen of the sample was sandwiched between 3-μm-thick films and analyzed in transmission geometry. A beam-stop, short antiscatter extension, and antiscatter knife-edge were used to minimize the background generated by air. Soller slits for the incident and diffracted beams were used to minimize broadening from axial divergence. Diffraction patterns were collected using a scanning position-sensitive detector (X'Celerator) located 240 mm from the specimen and Data Collector software v. 5.5.

The nature of data set [2]: Stable form and hydrate screen via slurry-trituration experiments. The format is physicochemical. The following applies: anh. EtOH, 55° C., 7 d, brown suspension. As for the experimental part: Slurry triburation experiments target the stable forms, including stable solvates and hydrates.
The slurry-trituration experiments were conducted by stirring solids of Compound I in specified solvents and solvent mixtures at various temperatures for 7 days (elevated temperature) or 14-18 days (ambient and sub-ambient temperatures). A summary of experimental conditions and results is detailed in Table 13.
as §1

A short description of data set [3]: Polymorph screen (evaporation, cooling, slurry, solvent/anti-solvent). The format is physicochemical. The following applies: EtOAc/HFIPA (36:64), stirred at 60° C. 1 d, FC to ice/water bath, FE w/N2 purge. The text has this:
Solids of Compound I unless noted otherwise, was used as the starting material. Materials produced in the study were utilized for selected experiments.
Solutions of starting material were allowed to partially evaporate or evaporate to dryness at ambient or elevated temperature from open vials for fast evaporation (FE) or from vials covered with aluminum foil with pin holes for slow evaporation (SE). Prior to evaporation, solutions were filtered at ambient or elevated temperature using 0.2 μm nylon filters.
Solutions of starting material were prepared in specified solvents at elevated temperature using a hot plate for heating. These were typically hot-filtered through a 0.2 μm nylon filter into warm receiving vials. […]
XRPD patterns were collected with a PANalytical X'Pert PRO MPD or Empyrean diffractometer using an incident beam of Cu radiation produced using an Optix long, fine-focus source. […] Prior to the analysis, a silicon specimen (NIST SRM 640e) was analyzed to verify the observed position of the Si (111) peak is consistent with the NIST-certified position. A specimen of the sample was sandwiched between 3-μm-thick films and analyzed in transmission geometry. […]

For a further data set, the target named is T1, glucokinase (Homo sapiens, UniProt P35557).
T1 sequence (P35557 1-465): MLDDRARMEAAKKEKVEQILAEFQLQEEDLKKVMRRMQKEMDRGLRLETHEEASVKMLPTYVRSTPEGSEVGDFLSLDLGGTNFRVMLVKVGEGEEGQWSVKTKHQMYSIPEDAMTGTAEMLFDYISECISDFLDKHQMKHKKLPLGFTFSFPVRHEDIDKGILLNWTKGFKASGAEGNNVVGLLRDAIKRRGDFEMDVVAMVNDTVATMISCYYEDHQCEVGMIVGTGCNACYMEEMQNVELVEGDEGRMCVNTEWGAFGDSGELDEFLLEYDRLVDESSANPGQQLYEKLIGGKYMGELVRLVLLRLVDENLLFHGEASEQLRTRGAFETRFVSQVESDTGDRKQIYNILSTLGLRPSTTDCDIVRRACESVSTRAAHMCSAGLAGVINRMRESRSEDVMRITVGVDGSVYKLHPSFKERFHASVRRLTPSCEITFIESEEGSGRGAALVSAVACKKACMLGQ
The settings on record: cited from earlier work.

Data set [4] in a line: Competitive slurry experiment in acetone among Form A, Form D, Form B and Form E, XRPD. It counts as physicochemical. The settings on record: for XRPD Results after competitive slurry of Forms A, D, B, E: acetone pre-saturated with Form A, 7 d, solids analyzed wet.
Description: At each condition, similar amounts of solids from the four forms/materials were slurried in pre-saturated solutions at the examined temperature conditions for 7 days; solids were then isolated and analyzed wet by XRPD.
as §1

For the compound `CCCO[C@H]1CC[C@H](N(C(=O)Nc2ncc(SCC(=O)O)s2)C2CCCCC2)CC1` [Compound I Form E + minor Form A, {2-[3-cyclohexyl-3-(trans-4-propoxy-cyclohexyl)-ureido]-thiazol-5-ylsulfanyl}-acetic acid], the “XRPD Results after drying” value in data set [1] (vacuum/45° C./1 d) is “Compound I Form B +”.

In the case of `CCCO[C@H]1CC[C@H](N(C(=O)Nc2ncc(SCC(=O)O)s2)C2CCCCC2)CC1` [Compound I Material G, {2-[3-cyclohexyl-3-(trans-4-propoxy-cyclohexyl)-ureido]-thiazol-5-ylsulfanyl}-acetic acid], the “XRPD Results after drying” value in data set [1] (vacuum/45° C./1 d) was “disordered”.

As for `CCCO[C@H]1CC[C@H](N(C(=O)Nc2ncc(SCC(=O)O)s2)C2CCCCC2)CC1` [Compound I, {2-[3-cyclohexyl-3-(trans-4-propoxy-cyclohexyl)-ureido]-thiazol-5-ylsulfanyl}-acetic acid], the “XRPD Result after slurry-trituration” value in data set [2] was “decomposed”. Further, the “XRPD Result after polymorph screen experiment” value in data set [3] is recorded as “decomposed”. Besides, the Glycemic control result at glucokinase (oral, liver selective glucokinase activator) is on record as “improves glycemic control”. The “Adverse effects (hypoglycemia, dyslipidemia/increased TG, liver glycogen and TG, loss of efficacy)” value on glucokinase (therapeutically relevant doses, compared with other GK activators) is “does not cause similar adversarial effects; also recorded: may not induce hypoglycemia, dyslipidemia, or pathological increases of glycogen and TG in the liver”.

In the case of `CCCO[C@H]1CC[C@H](N(C(=O)Nc2ncc(SCC(=O)O)s2)C2CCCCC2)CC1` [Form A, {2-[3-cyclohexyl-3-(trans-4-propoxy-cyclohexyl)-ureido]-thiazol-5-ylsulfanyl}-acetic acid], the “XRPD Results after competitive slurry of Forms A, D, B, E” value in data set [4] (2-8° C.), in data set [4] (45° C.) and in data set [4] (RT) was “Form A” throughout. Further, the “Relative stability among anhydrous forms A, B, D, E” value in data set [4] (within 2-8° C. to 45° C., based on competitive slurries) is listed as “likely the most stable form”.

On to `CCCO[C@H]1CC[C@H](N(C(=O)Nc2ncc(SCC(=O)O)s2)C2CCCCC2)CC1` [Form C, {2-[3-cyclohexyl-3-(trans-4-propoxy-cyclohexyl)-ureido]-thiazol-5-ylsulfanyl}-acetic acid], for which the “Solid form change upon drying / desolvation” value in data set [1] is listed as “desolvates into Form D”. For the same compound, the “XRPD Results after drying” value in data set [1] (vacuum/45° C./1 h) is given as “Compound I Form D”; in data set [1] (vacuum/45° C./1 d, listed as Compound I Form C) it was “Compound I Form D ±”.

With `CCCO[C@H]1CC[C@H](N(C(=O)Nc2ncc(SCC(=O)O)s2)C2CCCCC2)CC1` [Form F, {2-[3-cyclohexyl-3-(trans-4-propoxy-cyclohexyl)-ureido]-thiazol-5-ylsulfanyl}-acetic acid], the “Solid form change upon drying / desolvation” value in data set [1] is “converts to Form D upon drying”. Besides, the “XRPD Results after drying” value in data set [1] (vacuum/45° C./3 d, listed as Compound I Form F) is recorded as “Compound I Form D”.

Regarding `CCCO[C@H]1CC[C@H](N(C(=O)Nc2ncc(SCC(=O)O)s2)C2CCCCC2)CC1` [Form G, {2-[3-cyclohexyl-3-(trans-4-propoxy-cyclohexyl)-ureido]-thiazol-5-ylsulfanyl}-acetic acid], the “Solid form change upon drying / desolvation” value in data set [1] is “become disordered upon drying”. Besides, the “XRPD Results after drying” value in data set [1] (vacuum/45° C./3 d, listed as Compound I Form G) is on record as “disordered”.

With `CCCO[C@H]1CC[C@H](N(C(=O)Nc2ncc(SCC(=O)O)s2)C2CCCCC2)CC1` [Form H, {2-[3-cyclohexyl-3-(trans-4-propoxy-cyclohexyl)-ureido]-thiazol-5-ylsulfanyl}-acetic acid], the “Solid form change upon drying / desolvation” value in data set [1] is “become disordered upon drying”.

Take `CCCO[C@H]1CC[C@H](N(C(=O)Nc2ncc(SCC(=O)O)s2)C2CCCCC2)CC1` [Form I, {2-[3-cyclohexyl-3-(trans-4-propoxy-cyclohexyl)-ureido]-thiazol-5-ylsulfanyl}-acetic acid]: the “Solid form change upon drying / desolvation” value in data set [1] is “converts to Form E or solids similar to Form E upon drying”. The “XRPD Results after drying” value in data set [1] (vacuum/45° C./1 d, listed as Compound I Form I) is given as “Compound I Form B”.
